Measured values published in US7853319B2, “Method and system for detecting electrophysiological changes in pre-cancerous and cancerous tissue and epithelium” (Epi-Sci, LLC, priority 2005, dated 2010).
Read-outs that look alike come from different tables or passages of the source.

Columns and labels:
breast epithelium = details: 20 μM luminal amiloride, cited from earlier work
distal colon = details: administered over the same period (four weeks) as carcinogen; cited from earlier work
[1] = tested on: benign human breast epithelial cells; experiment: Transepithelial potential of monolayers in modified Ussing chambers, benign epithelia; assay type: cell-based; details: then remains persistently elevated
Experimental: (§1) It should be noted that the instantaneous response, illustrated in FIG. 8, is greater in malignant epithelia, whereas the chronic or sustained exposure to estradiol results in a lower increase in TEP (transepithelial electropotential) in malignant cells. Concurrent measurement of surface electropotential and impedance allow the more accurate diagnosis of cancer. […] The cells were grown as monolayers on Millipore filters and grew to confluence in 7 to 10 days. The epithelia were then mounted in modified Ussing chambers and the TEP was measured using a voltage clamp. Increasing doses of estradiol between 0 and 0.8 μM were added (x-axis). The transepithelial potential was measured after each addition and the TEP was measured (y-axis). The different dose response is apparent for benign and malignant epithelia. Malignant epithelia have a lower TEP but undergo an instantaneous increase in TEP of approximately 9 mV (becomes more electronegative and reaches a level of <−6 mV) after exposure to only 0.1 μM estradiol and then depolarize to approximately −2 mV with increasing doses of estradiol up to about 0.5 μM.

[2] = tested on: Malignant and transformed cells (human breast epithelial cells); experiment: Cell membrane potential (ψ) with potentiometric fluorescent probe, malignant and transformed cells; assay type: cell-based; details: estradiol present in the culture medium; −31 to −35 mV in its absence
Experimental: (§2) Measurements were made using a potentiometric fluorescent probe, and ratiometric measurements, which are calibrated using valinomycin and [K^+]-gradients. ψs were measured in the presence (closed circles) and absence (open circles) of estradiol (the active metabolite of estrogen). Each symbol is the mean measurement. The upper error bar is the standard error of the mean, and the lower error bar is the 95% confidence level for the observations. The addition of estrogen to cultured breast epithelial cells results in an instantaneous increase in ψ (data not shown) as well as the transepithelial potential see FIG. 8. Transepithelial potential (VT) of an epithelium is the sum of the apical (luminal) cell membrane potential (VA) and the basolateral (abluminal) cell membrane potential (VBL). Therefore VT=VA+VBL (changes in VA and/or VBL will therefore alter VT or transepithelial potential). […] Malignant and transformed cells have a ψ of between −31 and −35 mV in the absence of estradiol and […] when estradiol is present in the culture medium.

breast tissue = experiment: Electrophysiological response of breast tissue after sublingual 17-β-estradiol; assay type: in vivo, human; details: sublingual administration, 4 mg
Experimental: In one method of the present invention, estradiol is introduced directly into the duct or systemically following sublingual administration of 17-β-estradiol (4 mg). This agent produces a rapid response, which peaks at approximately 20 minutes. The electrophysiological response depends, in part, on the stage of the patient's menstrual cycle, as well as the condition of the breast tissue. Specifically, in normal breast tissue, a rise in TEP will occur during the follicular (or early) phase. In pre-cancerous or cancerous tissue, this response is abrogated.

[3] = tested on: malignant human breast epithelial cells; experiment: Transepithelial potential of monolayers in modified Ussing chambers, malignant epithelia; assay type: cell-based
Experimental: as §1

[4] = tested on: benign breast epithelial cells; experiment: Cell membrane potential (ψ) with potentiometric fluorescent probe, benign cells; assay type: cell-based, human; details: estradiol added to the culture media; approximately −50 mV in its absence
Experimental: as §2

[5] = tested on: histologically "normal" colonic epithelium; details: cited from earlier work
[6] = tested on: apical K+ channels of premalignant human mucosa (distal colon); experiment: Short circuit current of colonic mucosa ex vivo in Ussing chambers, premalignant mucosa; details: assuming complete block
Experimental: (§3) The potassium permeability of the apical membrane of human colonic mucosa (P^Ka) was determined in surgical specimens of controls and grossly normal-appearing mucosa obtained 10-30 cm proximal to colorectal adenocarcinomas. The mucosa was mounted in Ussing chambers and the basolateral membrane resistance and voltage were nullified by elevating the K^+ in the serosal bathing solution. The apical sodium (Na^+) conductance was blocked with 0.1 mM amiloride. This protocol reduces the equivalent circuit model of the epithelium to an apical membrane conductance and electromotive force in parallel with the paracellular pathway as has been verified by microelectrode studies. […] In cancer-bearing colon the reduction in Isc is to −65 μA/cm^2. The serosal bath was remained constant at 125 mM [K].
(§4) Because the voltage across the apical membrane is zero under these conditions and the paracellular pathway is nonselective, the P^Ka (apical potassium permeability) can be calculated using the Fick equation i.e., Isc=F·P^Ka·Δ[K] where F is the Faraday constant and Δ[K] is the concentration difference for K^+ across the epithelium. […] P^Ka could also be calculated for the change in Isc when the K^+ channels were blocked with TEA, assuming complete block.

[7] = tested on: apical K+ channels of human colonic epithelium (normal colon); experiment: Short circuit current of colonic mucosa ex vivo in Ussing chambers, normal colon (controls)
Experimental: as §3, §4

[8] = after exposure to 0.1 μM estradiol

N=C(N)NC(=O)c1nc(Cl)c(N)nc1N [amiloride]
depolarization of the transepithelial potential (change) (breast epithelium; baseline −5.9±0.5 mV (mean±SEM)): +3.1±0.5 mV
increase in transepithelial resistance (breast epithelium): 17%

O=c1[nH]cc(F)c(=O)[nH]1 [5-fluorouracil]
effect on transepithelial potential (VT) (distal colon): did not cause a reduction in VT

C[C@]12CC[C@@H]3c4ccc(O)cc4CC[C@H]3[C@@H]1CC[C@@H]2O [estradiol, 17-β-estradiol]
estradiol dose at which TEP response peaks [1]: ~0.3 µM
cell membrane potential (ψ) [2]: approximately 50 mV
time to peak of electrophysiological response (breast tissue): approximately 20 minutes
TEP level reached [3, 8]: < −6 mV
instantaneous increase in TEP [3, 8]: approximately 9 mV
TEP after depolarization with increasing doses ([3]; increasing doses of estradiol up to about 0.5 μM): approximately −2 mV
cell membrane potential (ψ) [4]: ~−70 mV

CNNC [DMH, 1,2 dimethylhydrazine]
VA (apical membrane voltage) ([5]; after 6 weeks of DMH treatment, from −74.9 mV): −61.4 mV
VA (apical membrane voltage) ([5]; by 20 weeks of DMH treatment): −34 mV

CC[N+](CC)(CC)CC [TEA]
apical K+ permeability (P^Ka) calculated from change in Isc on TEA block [6]: 3.8 ×10⁻⁶ cm/s
effect on short circuit current (Isc) ([7]; 30 mM mucosal TEA, 0.1 mM amiloride, elevated serosal K+, normal colon): abrupt increase in Isc
apical K+ permeability (P^Ka) calculated from change in Isc on TEA block ([7]; controls, assuming complete block): 6.4 ×10⁻⁶ cm/s
